# Data: patent publication US20240058464A1 (Fortis Therapeutics, Inc., priority 2021, published 2024)
# How the values were obtained:
# CD46 expression [1] = assay: CD46 expression by RNA-sequencing in unpaired pre-treatment and post-treatment tumor biopsies; assay type: in vivo, human; conditions: for CD46 expression Post: post-treatment biopsies
# CD46 expression [2] = assay: CD46 expression by RNA-sequencing in paired tumor biopsies before and after therapy; conditions: paired biopsies; for CD46 expression, Post-Treatment Biopsy: RNA-seq log2-transformed counts;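 for all read-outs here: FFPE human tumor biopsies, exome-capture RNA-seq, reads aligned to GRCh37, counts normalized for GC content, length and depth, summed per gene, log2-transformed, samples paired before versus after therapy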
# [3] = Non-Small Cell Lung Cancer, Post minus Pre, unpaired biopsies, log2-transformed counts
# [4] = Non-Small Cell Lung Cancer, post- vs pre-treatment unpaired biopsies
# [5] = Non-Small Cell Lung Cancer, unpaired, RNA-seq log2-transformed normalized counts
# [6] = Breast Cancer, Post minus Pre, unpaired biopsies, log2-transformed counts
# [7] = Breast Cancer, post- vs pre-treatment unpaired biopsies
# [8] = Breast Cancer, unpaired, RNA-seq log2-transformed normalized counts
smiles,measurement,setting,value
CC(=O)O[C@H]1C(=O)[C@@]2(C)[C@H]([C@H](OC(=O)c3ccccc3)[C@]3(O)C[C@H](OC(=O)[C@H](O)[C@@H](NC(=O)c4ccccc4)c4ccccc4)C(C)=C1C3(C)C)[C@]1(OC(C)=O)CO[C@@H]1C[C@@H]2O [paclitaxel],CD46 expression diff,"CD46 expression [1]; Breast Cancer, post minus pre, unpaired biopsies",−0.15
same,CD46 expression Percentage change,"CD46 expression [1]; Breast Cancer, post vs pre, unpaired biopsies",−2.4%
same,CD46 expression Post,"CD46 expression [1]; Breast Cancer, log2-transformed RNA-seq counts",6.04
same,CD46 expression diff,"CD46 expression [1]; Endometrial Cancer, Post minus Pre, unpaired biopsies, log2-transformed counts",0.03
same,CD46 expression Percentage change,"CD46 expression [1]; Endometrial Cancer, post- vs pre-treatment unpaired biopsies",0.6%
same,CD46 expression Post,"CD46 expression [1]; Endometrial Cancer, unpaired, RNA-seq log2-transformed normalized counts",5.85
same,CD46 expression diff,"CD46 expression [1]; Esophageal Cancer, Post minus Pre, unpaired biopsies, log2-transformed counts",−0.13
same,CD46 expression Percentage change,"CD46 expression [1]; Esophageal Cancer, post- vs pre-treatment unpaired biopsies",−2.1%
same,CD46 expression Post,"CD46 expression [1]; Esophageal Cancer, unpaired, RNA-seq log2-transformed normalized counts",5.79
same,CD46 expression diff,"CD46 expression [1]; Gastric Cancer, Post minus Pre, unpaired biopsies, log2-transformed counts",0.04
same,CD46 expression Percentage change,"CD46 expression [1]; Gastric Cancer, post- vs pre-treatment unpaired biopsies",0.7%
same,CD46 expression Post,"CD46 expression [1]; Gastric Cancer, unpaired, RNA-seq log2-transformed normalized counts",5.82
same,CD46 expression diff,"CD46 expression [1]; Head and Neck Squamous Cell Carcinoma, Post minus Pre, unpaired biopsies, log2-transformed counts",0.13
same,CD46 expression Percentage change,"CD46 expression [1]; Head and Neck Squamous Cell Carcinoma, post- vs pre-treatment unpaired biopsies",2.4%
same,CD46 expression Post,"CD46 expression [1]; Head and Neck Squamous Cell Carcinoma, unpaired, RNA-seq log2-transformed normalized counts",5.68
same,CD46 expression diff,CD46 expression [1]; [3],−0.07
same,CD46 expression Percentage change,CD46 expression [1]; [4],−1.1%
same,CD46 expression Post,CD46 expression [1]; [5],6.00
same,CD46 expression diff,"CD46 expression [1]; Ovarian Cancer, Post minus Pre, unpaired biopsies, log2-transformed counts",−0.01
same,CD46 expression Percentage change,"CD46 expression [1]; Ovarian Cancer, post- vs pre-treatment unpaired biopsies",−0.1%
same,CD46 expression Post,"CD46 expression [1]; Ovarian Cancer, unpaired, RNA-seq log2-transformed normalized counts",5.73
same,CD46 expression diff,"CD46 expression [1]; Sarcoma, Post minus Pre, unpaired biopsies, log2-transformed counts",−0.09
same,CD46 expression Percentage change,"CD46 expression [1]; Sarcoma, post- vs pre-treatment unpaired biopsies",−1.7%
same,CD46 expression Post,"CD46 expression [1]; Sarcoma, unpaired, RNA-seq log2-transformed normalized counts",4.96
same,CD46 expression diff (post minus pre),CD46 expression [2]; Breast Cancer,−0.09
same,Percent Change in CD46 expression,CD46 expression [2]; Breast Cancer,−1.4%
same,"CD46 expression, Post-Treatment Biopsy",CD46 expression [2]; Breast Cancer,6.12
same,CD46 expression diff (post minus pre),CD46 expression [2]; Endometrial Cancer,0.19
same,Percent Change in CD46 expression,CD46 expression [2]; Endometrial Cancer,3.2%
same,"CD46 expression, Post-Treatment Biopsy",CD46 expression [2]; Endometrial Cancer,6.01
same,CD46 expression diff (post minus pre),CD46 expression [2]; Esophageal Cancer,0.05
same,Percent Change in CD46 expression,CD46 expression [2]; Esophageal Cancer,0.8%
same,"CD46 expression, Post-Treatment Biopsy",CD46 expression [2]; Esophageal Cancer,6.02
same,CD46 expression diff (post minus pre),CD46 expression [2]; Non-Small Cell Lung Cancer,−0.23
same,Percent Change in CD46 expression,CD46 expression [2]; Non-Small Cell Lung Cancer,−3.7%
same,"CD46 expression, Post-Treatment Biopsy",CD46 expression [2]; Non-Small Cell Lung Cancer,5.89
same,CD46 expression diff (post minus pre),CD46 expression [2]; Ovarian Cancer,−0.04
same,Percent Change in CD46 expression,CD46 expression [2]; Ovarian Cancer,−0.8%
same,"CD46 expression, Post-Treatment Biopsy",CD46 expression [2]; Ovarian Cancer,5.67
CC(=O)c1c(C)c2cnc(Nc3ccc(N4CCNCC4)cn3)nc2n(C2CCCC2)c1=O [palbociclib],CD46 expression diff,CD46 expression [1]; [6],0.01
same,CD46 expression Percentage change,CD46 expression [1]; [7],0.2%
same,CD46 expression Post,CD46 expression [1]; [8],6.42
same,CD46 expression diff (post minus pre),CD46 expression [2]; Breast Cancer,−0.17
same,Percent Change in CD46 expression,CD46 expression [2]; Breast Cancer,−2.7%
same,"CD46 expression, Post-Treatment Biopsy",CD46 expression [2]; Breast Cancer,6.34
Nc1nc2[nH]cc(CCc3ccc(C(=O)N[C@@H](CCC(=O)O)C(=O)O)cc3)c2c(=O)[nH]1 [pemetrexed],CD46 expression diff,CD46 expression [1]; [3],−0.11
same,CD46 expression Percentage change,CD46 expression [1]; [4],−1.8%
same,CD46 expression Post,CD46 expression [1]; [5],6.27
same,CD46 expression diff (post minus pre),CD46 expression [2]; Non-Small Cell Lung Cancer,−0.20
same,Percent Change in CD46 expression,CD46 expression [2]; Non-Small Cell Lung Cancer,−3.1%
same,"CD46 expression, Post-Treatment Biopsy",CD46 expression [2]; Non-Small Cell Lung Cancer,6.22
C[C@]12C=CC(=O)C=C1CC[C@@H]1[C@@H]2C(=O)C[C@@]2(C)[C@H]1CC[C@]2(O)C(=O)CO [prednisone],CD46 expression diff,CD46 expression [1]; [3],0.02
same,CD46 expression Percentage change,CD46 expression [1]; [4],0.3%
same,CD46 expression diff,"CD46 expression [1]; Prostate Cancer, Post minus Pre, unpaired biopsies, log2-transformed counts",−0.10
same,CD46 expression Percentage change,"CD46 expression [1]; Prostate Cancer, post- vs pre-treatment unpaired biopsies",−1.7%
same,CD46 expression Post,"CD46 expression [1]; Prostate Cancer, unpaired, RNA-seq log2-transformed normalized counts",6.08
same,CD46 expression diff (post minus pre),CD46 expression [2]; Prostate Cancer,0.13
same,Percent Change in CD46 expression,CD46 expression [2]; Prostate Cancer,2.3%
same,"CD46 expression, Post-Treatment Biopsy",CD46 expression [2]; Prostate Cancer,5.85
CNC(=O)c1cc(Oc2ccc(NC(=O)Nc3ccc(Cl)c(C(F)(F)F)c3)c(F)c2)ccn1 [regorafenib],CD46 expression diff,"CD46 expression [1]; Colorectal Cancer, Post minus Pre, unpaired biopsies, log2-transformed counts",0.19
same,CD46 expression Percentage change,"CD46 expression [1]; Colorectal Cancer, post- vs pre-treatment unpaired biopsies",2.9%
same,CD46 expression Post,"CD46 expression [1]; Colorectal Cancer, unpaired, RNA-seq log2-transformed normalized counts",6.63
same,CD46 expression diff (post minus pre),CD46 expression [2]; Colorectal Cancer,0.25
same,Percent Change in CD46 expression,CD46 expression [2]; Colorectal Cancer,4.0%
same,"CD46 expression, Post-Treatment Biopsy",CD46 expression [2]; Colorectal Cancer,6.49
CC/C(=C(\c1ccccc1)c1ccc(OCCN(C)C)cc1)c1ccccc1 [tamoxifen],CD46 expression diff,CD46 expression [1]; [6],0.11
same,CD46 expression Percentage change,CD46 expression [1]; [7],1.8%
same,CD46 expression Post,CD46 expression [1]; [8],6.38
same,CD46 expression diff (post minus pre),CD46 expression [2]; Breast Cancer,0.11
same,Percent Change in CD46 expression,CD46 expression [2]; Breast Cancer,1.7%
same,"CD46 expression, Post-Treatment Biopsy",CD46 expression [2]; Breast Cancer,6.32
